Assay results from patent US20220356232A1, “A COMBINATION OF PLASMA IMMUNOGLOBULIN AND ANTIGEN-SPECIFIC IMMUNOGLOBULIN FOR THE MODIFICATION OF THE IMMUNE SYSTEM AND THE TREATMENT OR PREVENTION OF AUTOIMMUNE DISEASES” (Network Immunology Inc., priority 2019, published 2022).

Assays:
Format in all cases: in vivo, C57BL/6 mice
[1] = system: DSS-induced chronic colitis; experiment: DSS-induced chronic colitis: body weight and colon length (Example 6)
[2] = system: DSS-induced chronic colitis; experiment: Effect of T depletion (anti-CD4 mAb) on protection from DSS-induced chronic colitis; conditions: no anti-CD4 mAb
[3] = system: PP cells isolated from colonic tissue; experiment: FACS staining of CD3+ and Foxp3+ cells in PP cells isolated from colonic tissue, chronic colitis; conditions: DSS chronic colitis, treatment as per FIG. 7A
[4] = system: DSS-induced acute colitis; experiment: DSS-induced acute colitis (Example 6); conditions: 3% DSS 7 days; treatment from time of DSS exposure; FIGS. 12A-12C
Text: Wild-type (WT) C57BL/6 female mice, with high susceptibility to DSS-induced colitis, were used throughout and purchased from the Jackson laboratories (Bar Harbor, Me.). All mice were housed five per cage under specific pathogen-free conditions, allowed standard diet and water ad libitum, and used at 6-8 wk of age. Acute DSS colitis was induced by giving mice distilled drinking water containing 3% (wt./vol) DSS (Mol.Wt.=40 kDa; ICN Biochemicals, Aurora, Ohio) for 7 days. For induction of chronic colitis, mice were treated with 5 days of 2.5% DSS followed by 7 days of normal drinking water for a total of 3 cycles. Body weight was measured three times/week throughout the experiment. The maximum mortality observed following induction of acute colitis was 15% averaged over all studies, while no significant mortality was seen any groups in the chronic colitis model. Maximum weight loss in either model was ˜25%. […] In FIG. 12A, changes in body weight are expressed as a percent weight loss from baseline and plotted versus time post initiation of DSS treatment (x-axis). […] In FIGS. 12B and 12C, changes in colon length and 24 hr cytokine production from colon explant cultures respectively were assessed on day 9 following initiation of DSS treatment for mice shown in FIG. 12A and are expressed as mean±SD.

[5] = system: colonic explants from mice with chronic colitis; experiment: Cytokine release from 24 hr colonic explant cultures, chronic colitis (Example 6); conditions: 24 hr colonic explant cultures harvested at 38 d; FIG. 8

SMILES: C[C@]12CCC(=O)C=C1CC[C@@H]1[C@@H]2[C@@H](O)C[C@@]2(C)[C@H]1CC[C@]2(O)C(=O)COC(=O)CCC(=O)O [Solu-Cortef]
- weight loss in second and third cycle of DSS treatment ([1]; Ig weekly ×5 im from start of first DSS cycle, Solu-Cortef 6 μg/mouse alternate days, FIG. 7A): attenuation of weight loss
- suppression of disease in chronic colitis ([1]; all DSS cycles, 6 μg/mouse on alternate days): active in suppressing disease at all times
- weight loss after induction of chronic colitis ([2]; 5 mice/group, FIG. 9A): protected
- release of inflammatory cytokines from colon explant cultures ([2]; FIG. 10): attenuation of release
- % Ant-CD3 ([3]; PP cells from 2-3 mice/group): 4.4 ± 2.2%
- % Anti-Foxp3 ([3]; PP cells from 2-3 mice/group): 0.2 ± 0.2%
- Foxp3:CD3 ([3]; ratio, PP cells): 0.04
- protection from pathology of acute colitis (weight loss, colon length, production of inflammatory cytokines) [4]: protected
- release of inflammatory cytokines IFNγ, TNFα, IL-1β, IL-17 and IL-6 [5]: No such increased inflammatory cytokine release
